Several values for one entry are separate records, joined by “and”; a condition that tells them apart may be missing. Equal values may be shown once. Read-outs that look alike come from different tables or passages of the source.
Legend:
SARS-CoV-2 [1] = experiment: microbe, parasite or virus in culture; type: cell-based; details: Severe acute respiratory syndrome coronavirus 2, Vero C1008, read-out: SARS-CoV-2 Vero E6 EC50
SARS-CoV-2 [2] = experiment: microbe, parasite or virus in culture; type: cell-based; details: for EC50: Severe acute respiratory syndrome coronavirus 2, 24 h, read-out: SARS-CoV-2 Huh-7ACE2 EC50
SARS-CoV-2 3CL protease [3] = molecular target: T1, SARS-CoV-2 3CL protease (Severe acute respiratory syndrome coronavirus 2, UniProt P0DTD1); experiment: biochemical; details: for kinact/KI: read-out: SARS-CoV-2 3CLpro kinact/KI
SARS-CoV-2 3CL protease [4] = molecular target: T1, SARS-CoV-2 3CL protease; experiment: biochemical; details: for IC50 / % SARS-CoV-2 3CL activity: 20 nM protease; for IC50: read-out: SARS-CoV-2 3CLpro IC50; for % SARS-CoV-2 3CL activity / Normalized SARS-CoV-2 3CL protease activity: replicates; for Normalized SARS-CoV-2 3CL protease activity: 0.2 µM protease with 50 µM tested compound
SARS-CoV-2 3CL protease [5] = molecular target: T1, SARS-CoV-2 3CL protease; experiment: cell-based
[6] = Concentration of inhibitor (nM) 0.19382
[7] = Concentration of inhibitor (nM) 0.49485
[8] = Concentration of inhibitor (nM) 0.79588
[9] = Concentration of inhibitor (nM) 1.09691
[10] = Concentration of inhibitor (nM) 1.39794
[11] = Concentration of inhibitor (nM) 1.69897
[12] = Concentration of inhibitor (nM) 2
[13] = Concentration of inhibitor (nM) 2.30103
[14] = Concentration of inhibitor (nM) -0.10721
[15] = Concentration of inhibitor (nM) -0.40824
[16] = Concentration of inhibitor (nM) 2.60206

Structure (SMILES)	inhibition of SARS-CoV-2 (Figure s17b dose-response, replicate values) (SARS-CoV-2 [2])	EC50 (SARS-CoV-2 [2])	observed inactivation rate vs compound concentration (Figure S19, replicate values) (SARS-CoV-2 3CL protease [3])	kinact/KI (SARS-CoV-2 3CL protease [3])	IC50 (SARS-CoV-2 3CL protease [4])	normalized activity, dose-response curve (Figure S16) (SARS-CoV-2 3CL protease [4]; [6])	normalized activity, dose-response curve (Figure S16) (SARS-CoV-2 3CL protease [4]; [7])	normalized activity, dose-response curve (Figure S16) (SARS-CoV-2 3CL protease [4]; [8])	normalized activity, dose-response curve (Figure S16) (SARS-CoV-2 3CL protease [4]; [9])	normalized activity, dose-response curve (Figure S16) (SARS-CoV-2 3CL protease [4]; [10])	normalized activity, dose-response curve (Figure S16) (SARS-CoV-2 3CL protease [4]; [11])	normalized activity, dose-response curve (Figure S16) (SARS-CoV-2 3CL protease [4]; [12])	normalized activity, dose-response curve (Figure S16) (SARS-CoV-2 3CL protease [4]; [13])	normalized activity, dose-response curve (Figure S16) (SARS-CoV-2 3CL protease [4]; [14])	normalized activity, dose-response curve (Figure S16) (SARS-CoV-2 3CL protease [4]; [15])	Normalized SARS-CoV-2 3CL protease activity (SARS-CoV-2 3CL protease [4])	Absorbance (crystal violet), SARS-CoV-2 3CLpro (SARS-CoV-2 3CL protease [5])	further results
CC(C)C[C@H](NC(=O)OCc1cccc2ccccc12)C(=O)N[C@@H](C[C@@H]1CCNC1=O)C(O)S(=O)(=O)O (stereo partly shown) [EB55]	100.856 and 96.5428 and 101.322 and 91.4468 and 90.1295 and 92.8292 and 65.5151 and 69.1898 and 72.8142 and 38.0936 and 42.5735 and 35.1981 and 28.1354 and 24.4902 and 21.8952 and 10.9114 and 19.9799 and 11.8441 and 9.792 and 14.2234 and 10.7567	11 nM	0.0457 and 0.0269 and 0.0571 and -0.0002 and 0.0258 and 0.0554 and 0.0425 and 0.0417 and 0.0134 and 0.0205 and 0.022 and 0.0066	21700 M⁻¹ s⁻¹	72 nM	97.6947 and 91.9164	90.7787 and 89.6887	89.0003 and 83.5464	84.4555 and 78.5499	77.2102 and 70.0207	64.1027 and 59.773	47.4055 and 42.8102	16.7117 and 14.6768	100.329 and 102.132	100			EC50 (SARS-CoV-2 [1]): 3000 nM
O=C(N[C@@H](CC1CC1)C(=O)N[C@@H](C[C@@H]1CCNC1=O)C(O)S(=O)(=O)O)OCc1ccccc1 (stereo partly shown) [NK01-14]	107.44 and 106.681 and 107.657 and 104.164 and 95.5823 and 98.4941 and 57.1014 and 42.1437 and 64.5278 and 21.8135 and 20.6648 and 21.9136 and 20.2988 and 22.5837 and -3.217 and 20.0515 and 23.307 and 7.747 and 3.643 and 5.208 and 12.2626	26 nM	0.0144 and -0.00118 and 0.0245 and 0.0068 and 0.0252 and 0.0272 and 0.0287 and 0.0225 and 0.0192 and -0.00612 and 0.0023 and 0.0187	71700 M⁻¹ s⁻¹	22 nM	88.3287 and 88.0525	79.1436 and 83.9088	76.0359 and 72.2376	63.3978 and 55.1105	56.2155 and 53.3149	37.1547 and 46.616	24.2403 and 25.2762	7.666 and 9.392	96.8923 and 94.268	109.254 and 100			
CC(C)C[C@H](NC(=O)OCc1cc(F)c(F)cc1F)C(=O)N[C@@H](C[C@@H]1CCNC1=O)C(O)S(=O)(=O)O (stereo partly shown) [NK01-48]	125.494 and 126.964 and 86.3185 and 118.605 and 134.4 and 122.016 and 84.6265 and 61.89 and 119.128 and 54.4703 and 35.4275 and 15.416 and 32.4697 and 30.0193 and 47.7694 and 0.4554 and -12.5084 and -5.078 and 34.0338 and 10.0006 and 6.443	15 nM	0.0181 and 0.0442 and 0.0252 and 0.0284 and 0.021 and 0.0128 and 0.0148 and 0.0158 and 0.0136 and 0.0037 and 0.0168 and 0.02 and 0.0021 and 0.0084 and 0.0011	5000 M⁻¹ s⁻¹	92 nM	99.5986 and 99.2546	84.289 and 78.0963	92.7179 and 89.3922	76.6628 and 70.7569	79.2431 and 69.9541	62.156 and 55.5619	48.3945 and 50.2294	33.7729 and 21.5023	97.1904 and 78.0963	97.1904 and 100			normalized activity, dose-response curve (Figure S16) (SARS-CoV-2 3CL protease [4]; [16]): 18.3486 and 12.328
O=C(N[C@@H](CC1CC1)C(=O)N[C@@H](C[C@@H]1CCNC1=O)C(O)S(=O)(=O)O)OCc1cccc(Cl)c1 (stereo partly shown) [NK01-57]	104.54 and 74.4176 and 64.8123 and 55.4072 and 79.8077 and 89.5745 and 61.4462 and 18.0183 and 12.437 and -10.4634 and -16.0501 and 3.693 and 24.8584 and -12.4097 and 6.795 and 29.8589 and -3.6952 and 33.5228 and 9.378 and -5.3463 and 36.5619	92 nM	0.0175 and 0.0065 and 0.0112 and -0.01176 and 0.0254 and -0.00163 and 0.0094 and -0.00166 and -0.05051 and -0.00614 and -0.01353 and -0.00565 and -0.00112 and -0.0108 and -0.00266 and -0.00784 and 0.0038 and -0.0081 and -0.00313 and -0.00276 and 0.0019		13 nM	95.6172 and 86.9248	85.9021 and 78.3053	79.0358 and 66.0336	62.3083 and 48.2104	43.3163 and 27.8305	26.2235 and 13.9518		6.939 and 9.715	107.889 and 102.703	100 and 101.315			normalized activity, dose-response curve (Figure S16) (SARS-CoV-2 3CL protease [4]; [16]): 9.934 and 9.2038
O=C(N[C@@H](CC1CC1)C(=O)N[C@@H](C[C@@H]1CCNC1=O)C(O)S(=O)(=O)O)OCc1ccccc1Cl (stereo partly shown) [NK01-69]	112.139 and 77.9057 and 91.5513 and 79.8842 and 49.1022 and 70.5924 and 62.1924 and 62.9155 and 78.4113 and -0.7628 and 38.0643 and 11.5151 and -8.426 and 17.4096 and 4.8166 and -9.308 and 10.7894 and 11.3275 and 55.1502 and 29.5769 and 12.5491	35 nM	0.0682 and 0.0478 and 0.0347 and 0.0227 and 0.0119 and 0.047 and -0.00793 and 0.0043 and 0.0066 and 0.0454 and 0.0603 and 0.0339 and 0.0459 and 0.0266 and 0.0345 and 0.0301 and 0.0444 and 0.0675	70000 M⁻¹ s⁻¹	24 nM	88.5666 and 86.5188	72.8669 and 79.1809	75 and 74.3174	65.1024 and 60.8362	47.5256 and 39.3345	32.1672 and 24.5734		4.608 and 4.693	106.997 and 100.683	89.5904 and 100			
O=C(Oc1cncc(Cl)c1)c1ccco1 [T71]					11 nM											0.04328 and 0.01902 and 0.03148	0.16 and 0.1636	% SARS-CoV-2 3CL activity (SARS-CoV-2 3CL protease [4]; log10[nM] 0.19382): 86.3659% and 89.8434%; % SARS-CoV-2 3CL activity (SARS-CoV-2 3CL protease [4]; log10[nM] 0.49485): 80.2845% and 76.3012%; % SARS-CoV-2 3CL activity (SARS-CoV-2 3CL protease [4]; log10[nM] 0.79588): 65.6694% and 65.2855%; % SARS-CoV-2 3CL activity (SARS-CoV-2 3CL protease [4]; log10[nM] 1.09691): 47.7195% and 48.4083%; % SARS-CoV-2 3CL activity (SARS-CoV-2 3CL protease [4]; log10[nM] 1.39794): 16.1844% and 18.9995%; % SARS-CoV-2 3CL activity (SARS-CoV-2 3CL protease [4]; log10[nM] 1.69897): 0.4414% and 4.144%; % SARS-CoV-2 3CL activity (SARS-CoV-2 3CL protease [4]; log10[nM] 2): -3.629% and 1.061%; % SARS-CoV-2 3CL activity (SARS-CoV-2 3CL protease [4]; log10[nM] 2.30103): -2.6974% and 0.4042%; % SARS-CoV-2 3CL activity (SARS-CoV-2 3CL protease [4]; log10[nM] 2.60206): -1.9127% and -0.758%; % SARS-CoV-2 3CL activity (SARS-CoV-2 3CL protease [4]; log10[nM] 2.90309): 0%; % SARS-CoV-2 3CL activity (SARS-CoV-2 3CL protease [4]; log10[nM] -0.10721): 95.0956% and 96.5639%; % SARS-CoV-2 3CL activity (SARS-CoV-2 3CL protease [4]; log10[nM] -0.40824): 100%
O=C(/C=C/c1ccc(F)cc1)Oc1cc(Cl)c[nH]c1=O [Z14]																1.002 and 0.9823 and 0.9751	0.1689 and 0.1739	
CC(=O)N1CCc2cc(C(=O)Oc3cncc(Cl)c3)ccc21 [Z21]																0.2321 and 0.2984	0.1721 and 0.1614	
